Assay results reported in patent US7220769B2, “Azolylbenzamides and analogues and their use for treating osteoporosis” (Nikem Research S.R.L., priority 1999, dated 2007).

Columns and labels:
osteoclast proton pump = conditions: membrane vesicles from avian osteoclasts, ATP-driven acidification, acridine orange quench; cited from earlier work
osteoclast cultures = conditions: cited from earlier work

melting point [°C]	SMILES	other results
> 280	CN1C(C)(C)CC(NC(=O)c2ccc(-c3nc4cc(Cl)c(Cl)cc4[nH]3)cc2)CC1(C)C [Example 1, 4-(5,6-Dichlorobenzimidazol-2-yl)-N-(1,2,2,6,6-pentamethylpiperidin-4-yl)benzamide]	–
> 250	CN1C(C)(C)CC(NC(=O)c2ccc(-c3nc4cc(Cl)ccc4[nH]3)cc2)CC1(C)C [Example 2, 4-(5-Chlorobenzimidazol-2-yl)-N-(1,2,2,6,6-pentamethylpiperidin-4-yl)-benzamide]	–
> 250	CN1C(C)(C)CC(NC(=O)c2ccc(-c3nc4cc(Cl)c(Cl)cc4[nH]3)c(O)c2)CC1(C)C [Example 3, 4-(5,6-Dichlorobenzimidazol-2-yl)-N-(1,2,2,6,6-pentamethylpiperidin-4-yl)-3-hydroxybenzamide]	–
285 to 286	COc1cc(C(=O)NC2CC(C)(C)N(C)C(C)(C)C2)ccc1-c1nc2cc(Cl)c(Cl)cc2[nH]1 [Example 4, 4-(5,6-Dichlorobenzimidazol-2-yl)-N-(1,2,2,6,6-pentamethylpiperidin-4-yl)-3-methoxybenzamide]	–
178 to 180	COc1cc(C(=O)NC2CC(C)(C)N(C)C(C)(C)C2)ccc1-c1nc2cc(Cl)c(Cl)cc2n1C [Example 5, 4-(5,6-Dichloro-1-methylbenzimidazol-2-yl)-N-(1,2,2,6,6-pentamethylpiperidin-4-yl)-3-methoxybenzamide]	–
> 280	CCOc1cc(C(=O)NC2CC(C)(C)NC(C)(C)C2)ccc1-c1nc2cc(Cl)c(Cl)cc2[nH]1 [Example 6, 4-(5,6-Dichlorobenzimidazol-2-yl)-N-(2,2,6,6-tetramethylpiperidin-4-yl)-3-ethoxybenzamide]	–
255 to 258	COc1cc(C(=O)NCCCN2CCN(c3ncccn3)CC2)ccc1-c1nc2cc(Cl)c(Cl)cc2[nH]1 [Example 7, 4-(5,6-Dichlorobenzimidazol-2-yl)-N-[3-[4-(2-pyrimidinyl)piperazin-1-yl]propyl]-3-methoxybenzamide]	–
258 to 260	O=C(NCCCN1CCN(c2ncccn2)CC1)c1ccc(-c2nc3cc(Cl)c(Cl)cc3[nH]2)c(O)c1 [Example 8, 4-(5,6-Dichlorobenzimidazol-2-yl)-N-[3-[4-(2-pyrimidinyl)piperazin-1-yl]propyl]-3-hydroxybenzamide]	–
233 to 235	COc1cc(C(=O)NC2CC(C)(C)NC(C)(C)C2)ccc1-c1nc2cc(Cl)c(Cl)cc2[nH]1 [Example 10, 4-(5,6-Dichlorobenzimidazol-2-yl)-N-(2,2,6,6-tetramethylpiperidin-4-yl)-3-methoxybenzamide]	–
240 to 242	COc1cc(C(=O)N(C)C2CC(C)(C)NC(C)(C)C2)ccc1-c1nc2cc(Cl)c(Cl)cc2[nH]1 [Example 11, 4-(5,6-Dichlorobenzimidazol-2-yl)-N-(2,2,6,6-tetramethylpiperidin-4-yl)-N-methyl-3-methoxybenzamide]	–
> 250	Cc1cc(C(=O)NC2CC(C)(C)NC(C)(C)C2)ccc1-c1nc2cc(Cl)c(Cl)cc2[nH]1 [Example 13, 4-(5,6-Dichlorobenzimidazol-2-yl)-N-(2,2,6,6-tetramethylpiperidin-4-yl)-3-methylbenzamide]	–
> 260	CCOc1cc(C(=O)Nc2cccnc2)ccc1-c1nc2cc(Cl)c(Cl)cc2[nH]1 [Example 15, 4-(5,6-Dichlorobenzimidazol-2-yl)-N-(3-pyridyl)-3-ethoxybenzamide]	–
148 to 150	CCOc1cc(C(=O)NCCCO)ccc1-c1nc2cc(Cl)c(Cl)cc2[nH]1 [Example 16, 4-(5,6-Dichlorobenzimidazol-2-yl)-N-(3-hydroxypropyl)-3-ethoxybenzamide]	–
> 250	COc1cc(-c2nc3cc(Cl)c(Cl)cc3[nH]2)c(OC)cc1C(=O)NC1CC(C)(C)N(C)C(C)(C)C1 [Example 17, 4-(5,6-Dichlorobenzimidazol-2-yl)-N-(1,2,2,6,6-pentamethylpiperidin-4-yl)-2,5-dimethoxybenzamide]	–
> 250	COc1cc(-c2nc3cc(Cl)c(Cl)cc3[nH]2)c(OC)cc1C(=O)NC1CC(C)(C)NC(C)(C)C1 [Example 18, 4-(5,6-Dichlorobenzimidazol-2-yl)-N-(2,2,6,6-tetramethylpiperidin-4-yl)-2,5-dimethoxybenzamide]	–
222 to 225	CCOc1cc(C(=O)NC2CC(C)(C)NC(C)(C)C2)ccc1-c1nc2ccc(Cl)cc2[nH]1 [Example 19, 4-(5-Chlorobenzimidazol-2-yl)-N-(2,2,6,6-tetramethylpiperidin-4-yl)-3-ethoxybenzamide]	–
–	CCN1C(=O)C=CC1=O [N-ethylmaleimide]	proton transport inhibited / not inhibited (osteoclast proton pump): inhibited
–	Cc1nc2c(OCc3ccccc3)cccn2c1CC#N [SCH 28080]	proton transport inhibited / not inhibited (osteoclast proton pump): not inhibited
–	CO/C1=C\C(C)=C\[C@@H](C)[C@@H](O)[C@@H](C)C/C(C)=C/C=C/[C@H](OC)[C@@H]([C@@H](C)[C@@H](O)[C@H](C)[C@@]2(O)C[C@@H](O)[C@H](C)[C@@H](C(C)C)O2)OC1=O [bafilomycin A1]	inhibit bone resorption (osteoclast cultures): able to inhibit bone resorption; proton transport inhibited / not inhibited (osteoclast proton pump): inhibited
–	C[C@@H]1O[C@@H](O[C@H]2C[C@@H](O)[C@]3(CO)[C@H]4[C@H](O)C[C@]5(C)[C@@H](C6=CC(=O)OC6)CC[C@]5(O)[C@@H]4CC[C@]3(O)C2)[C@H](O)[C@H](O)[C@H]1O [ouabain]	proton transport inhibited / not inhibited (osteoclast proton pump): not inhibited
–	[Na+].[Na+].[Na+].[O]=[V]([O-])([O-])[O-] [sodium orthovanadate]	proton transport inhibited / not inhibited (osteoclast proton pump): not inhibited
